This note sets out measurements from patent publication US12534457B2, “Heteroaryl derivative compounds, and uses thereof” (Voronoi Inc., priority 2021, dated 2026).

One experiment concerns Ba/F3 cells expressing EGFR Del19/C797S (EGFR DC). As to the kind of experiment: Proliferation inhibitory activity, Ba/F3 cells expressing EGFR Del19/C797S (CellTiter-Glo). The experiment is classed as cell-based. As to conditions: 72 hours of compound treatment. The method, boiled down:
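Viability after 72 h of compound exposure was measured by luminescence (CellTiter-Glo) in Ba/F3 lines transduced with mutant EGFR. Final concentrations spanned 0.2 nM–5 μM over 12 threefold steps. Growth relative to untreated control gave GI50 values; each test was run three times.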
A word on the GI50: it is the concentration giving 50% growth inhibition. In the case of `COc1cc(Nc2cc(N3OCC[C@@H]3c3cc(F)cc(F)c3)ncn2)ccc1N1CCC(N2CCN(C)CC2)CC1` [Example 26], the GI50 is under 50 nM.

Staying with this experiment, now noted: Mus musculus, BaF3, 72 hours of compound treatment.
Turning to `CN1CCN(C2CCN(c3ccc(Nc4cc(N5OCC[C@@H]5c5cc(F)cc(F)c5)ncn4)cc3S(C)(=O)=O)CC2)CC1` [Example 24, (R)-6-(3-(3,5-difluorophenyl)isoxazolidin-2-yl)-N-(4-(4-(4-methylpiperazin-1-yl)piperidin-1-yl)-3-(methylsulfonyl)phenyl)pyrimidin-4-amine], the GI50 was 50 to 500 nM.
On the same count and under the same terms, then `Fc1ncc(N2C[C@@H]3C[C@H]2CO3)cc1Nc1cc(N2OCC[C@@H]2c2ccccc2)ncn1` [Example 74, N-(5-((1S,4S)-2-oxa-5-azabicyclo[2.2.1]heptan-5-yl)-2-fluoropyridin-3-yl)-6-((R)-3-phenylisoxazolidin-2-yl)pyrimidin-4-amine], with under 50 nM.
On the same count and under the same terms, then `COc1cc(N2CCC(N3CCN(C(C)C)CC3)CC2)ccc1Nc1cc(N2OCC[C@@H]2c2cccc(F)c2F)ncn1` [Example 222, (R)-6-(3-(2,3-difluorophenyl)isoxazolidin-2-yl)-N-(4-(4-(4-isopropylpiperazin-1-yl)piperidin-1-yl)-2-methoxyphenyl)pyrimidin-4-amine], with under 50 nM.
Still for that read-out and setting: then `COc1cc(N2CCC(N3CCN(C)CC3)CC2)c(C2CC2)cc1Nc1cc(N2OCC[C@@H]2c2ccccc2)ncn1` [Example 143, (R)—N-(5-cyclopropyl-2-methoxy-4-(4-(4-methylpiperazin-1-yl)piperidin-1-yl)phenyl)-6-(3-phenylisoxazolidin-2-yl)pyrimidin-4-amine], with under 50 nM; and `COc1cc(N2CCC(N3CCN(C)CC3)CC2)ccc1Nc1cc(N2OCC[C@@H]2c2cccc(F)c2F)ncn1` [Example 32, (R)-6-(3-(2,3-difluorophenyl)isoxazolidin-2-yl)-N-(2-methoxy-4-(4-(4-methylpiperazin-1-yl)piperidin-1-yl)phenyl)pyrimidin-4-amine], with under 50 nM; and `CN1CCN(c2ccc(Nc3cc(N4OCC5(CC5)[C@@H]4c4ccccc4)ncn3)cc2)CC1` [Example 231, (S)—N-(4-(4-methylpiperazin-1-yl)phenyl)-6-(7-phenyl-5-oxa-6-azaspiro[2.4]heptan-6-yl)pyrimidin-4-amine], with 50 to 500 nM.
On to `COc1cc(N2CCC(N3CCN(C)CC3)C(F)C2)ccc1Nc1cc(N2OCC[C@@H]2c2cccc(F)c2F)ncn1` (stereo partly drawn) [Example 140, 6-((R)-3-(2,3-difluorophenyl)isoxazolidin-2-yl)-N-(4-(3-fluoro-4-(4-methylpiperazin-1-yl)piperidin-1-yl)-2-methoxyphenyl)pyrimidin-4-amine], for which the GI50 was under 50 nM.
As for `CN1CCN(C2CCN(c3cc(OCC(F)(F)F)c(Nc4cc(N5OCC[C@@H]5c5ccccc5)ncn4)cc3-c3cnn(C)c3)CC2)CC1` [Example 164, (R)—N-(5-(1-methyl-1H-pyrazol-4-yl)-4-(4-(4-methylpiperazin-1-yl)piperidin-1-yl)-2-(2,2,2-trifluoroethoxy)phenyl)-6-(3-phenylisoxazolidin-2-yl)pyrimidin-4-amine], the GI50 is under 50 nM.
For `COc1cc(Nc2cc(N3OCC[C@@H]3c3ccccc3)ncn2)ccc1N1CCC(N2CCN(CCO)CC2)CC1` [Example 121, (R)-2-(4-(1-(2-methoxy-4-((6-(3-phenylisoxazolidin-2-yl)pyrimidin-4-yl)amino)phenyl)piperidin-4-yl)piperazin-1-yl)ethan-1-ol], the GI50 is under 50 nM.
On the same count and under the same terms, the same measure for `COc1cc(N2CCC(N3CCN(C)CC3)CC2)c(C)cc1Nc1cc(N2OCC[C@@H]2c2cc(F)cc(F)c2)ncn1` [Example 20, (R)-6-(3-(3,5-difluorophenyl)isoxazolidin-2-yl)-N-(2-methoxy-5-methyl-4-(4-(4-methylpiperazin-1-yl)piperidin-1-yl)phenyl)pyrimidin-4-amine]: under 50 nM; for `Cn1cc(Nc2cc(N3OCC[C@@H]3c3ccccc3)ncn2)cn1` [Example 133, (R)—N-(1-methyl-1H-pyrazol-4-yl)-6-(3-phenylisoxazolidin-2-yl)pyrimidin-4-amine]: 50 to 500 nM.
Regarding `COc1cc(N2CCN(C)CC2)c(-c2cnn(C)c2)nc1Nc1cc(N2OCC[C@@H]2c2cccc(F)c2F)ncn1` [Example 201, (R)-6-(3-(2,3-difluorophenyl)isoxazolidin-2-yl)-N-(3-methoxy-6-(1-methyl-1H-pyrazol-4-yl)-5-(4-methylpiperazin-1-yl)pyridin-2-yl)pyrimidin-4-amine], the GI50 is under 50 nM.
Still for that read-out and setting: the same measure for `COc1cc(Nc2cc(N3OCC[C@@H]3c3ccc(F)cc3)ncn2)ccc1N1CCC(N2CCN(C)CC2)CC1` [Example 96, (R)-6-(3-(4-fluorophenyl)isoxazolidin-2-yl)-N-(3-methoxy-4-(4-(4-methylpiperazin-1-yl)piperidin-1-yl)phenyl)pyrimidin-4-amine]: under 50 nM.
On the same count and under the same terms, then `C=Cc1cc(Nc2cc(N3OCC[C@@H]3c3cccc(F)c3F)ncn2)c(OC)cc1N1CCN(C)CC1` [Example 199, (R)-6-(3-(2,3-difluorophenyl)isoxazolidin-2-yl)-N-(2-methoxy-4-(4-methylpiperazin-1-yl)-5-vinylphenyl)pyrimidin-4-amine], with under 50 nM.
Consider `COc1cc(N2CCC(N3CCN(C)CC3)CC2)ccc1Nc1cc(N2OCC[C@@H]2c2cccc(F)c2)ncn1` [Example 29, (R)-6-(3-(3-fluorophenyl)isoxazolidin-2-yl)-N-(2-methoxy-4-(4-(4-methylpiperazin-1-yl)piperidin-1-yl)phenyl)pyrimidin-4-amine], for which the GI50 is under 50 nM.
Same read-out and setting: the same measure for `COc1cc(N2CCN(C3CCN(C)CC3)C[C@H]2C)ccc1Nc1cc(N2OCC[C@@H]2c2ccccc2)ncn1` [Example 99, N-(2-methoxy-4-((R)-2-methyl-4-(1-methylpiperidin-4-yl)piperazin-1-yl)phenyl)-6-((R)-3-phenylisoxazolidin-2-yl)pyrimidin-4-amine]: under 50 nM.
Still for that read-out and setting: the same measure for `CN(C)C1CCN(c2ccc(Nc3cc(N4OCC[C@@H]4c4ccccc4)ncn3)cc2)CC1` [Example 127, (R)—N-(4-(4-(dimethylamino)piperidin-1-yl)phenyl)-6-(3-phenylisoxazolidin-2-yl)pyrimidin-4-amine]: under 50 nM; for `COc1cc(N2CCC(N3CCN(C)CC3)CC2)ccc1Nc1cc(N2OCC[C@@H]2c2cc(F)cc(C#N)c2)ncn1` [Example 170, (R)-3-fluoro-5-(2-(6-((2-methoxy-4-(4-(4-methylpiperazin-1-yl)piperidin-1-yl)phenyl)amino)pyrimidin-4-yl)isoxazolidin-3-yl)benzonitrile]: 50 to 500 nM; for `COc1cc(N2CCC(N3CCN(C)CC3)CC2)c(C(C)C)cc1Nc1cc(N2OCC[C@@H]2c2cccc(F)c2F)ncn1` [Example 142, (R)-6-(3-(2,3-difluorophenyl)isoxazolidin-2-yl)-N-(5-isopropyl-2-methoxy-4-(4-(4-methylpiperazin-1-yl)piperidin-1-yl)phenyl)pyrimidin-4-amine]: under 50 nM.
On the same count and under the same terms, then `COc1cc(N2CCC(N3CCN(C)CC3)CC2)ccc1Nc1ncnc(N2OCC[C@@H]2c2ccccc2)n1` [Example 112, (R)—N-(2-methoxy-4-(4-(4-methylpiperazin-1-yl)piperidin-1-yl)phenyl)-4-(3-phenylisoxazolidin-2-yl)-1,3,5-triazin-2-amine], with 50 to 500 nM; and `Cc1cc(N2CCOCC2)ccc1Nc1cc(N2OCC[C@@H]2c2ccccc2)ncn1` [Example 108, (R)—N-(2-methyl-4-morpholinophenyl)-6-(3-phenylisoxazolidin-2-yl)pyrimidin-4-amine], with under 50 nM.
In the case of `Cc1cc(Nc2cc(N3OCC[C@@H]3c3cccc(F)c3F)ncn2)ccc1N1CCC(N2CCN(C)CC2)CC1` [Example 126, (R)-6-(3-(2,3-difluorophenyl)isoxazolidin-2-yl)-N-(3-methyl-4-(4-(4-methylpiperazin-1-yl)piperidin-1-yl)phenyl)pyrimidin-4-amine], the GI50 is under 50 nM.
Same read-out and setting: the same measure for `COc1cccc([C@H]2CCON2c2cc(Nc3ccc(N4CCC(N5CCN(C)CC5)CC4)cc3OC)ncn2)c1` [Example 41, (R)—N-(2-methoxy-4-(4-(4-methylpiperazin-1-yl)piperidin-1-yl)phenyl)-6-(3-(3-methoxyphenyl)isoxazolidin-2-yl)pyrimidin-4-amine]: 50 to 500 nM; for `Cn1cc(-c2cc(Nc3cc(N4OCC[C@@H]4c4ccccc4)ncn3)c(OCC(F)(F)F)cc2N2CCOCC2)cn1` [Example 167, (R)—N-(5-(1-methyl-1H-pyrazol-4-yl)-4-morpholino-2-(2,2,2-trifluoroethoxy)phenyl)-6-(3-phenylisoxazolidin-2-yl)pyrimidin-4-amine]: under 50 nM.
Still for that read-out and setting: the same measure for `COc1cc(OCCN(C)C)ccc1Nc1cc(N2OCC[C@@H]2c2ccccc2)ncn1` [Example 64, (R)—N-(4-(2-(dimethylamino)ethoxy)-2-methoxyphenyl)-6-(3-phenylisoxazolidin-2-yl)pyrimidin-4-amine]: under 50 nM; for `c1ccc([C@H]2CCON2c2cc(Nc3ccc4c(c3)CCNC4)ncn2)cc1` [Example 78, (R)—N-(6-(3-phenylisoxazolidin-2-yl)pyrimidin-4-yl)-1,2,3,4-tetrahydroisoquinolin-6-amine]: under 50 nM; for `CCN1C[C@H]2C[C@@H]1CN2C1CCN(c2ccc(Nc3cc(N4OCC[C@@H]4c4ccccc4)ncn3)c(OC)c2)CC1` [Example 116, N-(4-(4-((1R,4R)-5-ethyl-2,5-diazabicyclo[2.2.1]heptan-2-yl)piperidin-1-yl)-2-methoxyphenyl)-6-((R)-3-phenylisoxazolidin-2-yl)pyrimidin-4-amine]: under 50 nM.
In the case of `CN(C)[C@@H]1CCN(c2ccc(Nc3cc(N4OCC[C@@H]4c4ccccc4)ncn3)cc2)C1` [Example 69, N-(4-((R)-3-(dimethylamino)pyrrolidin-1-yl)phenyl)-6-((R)-3-phenylisoxazolidin-2-yl)pyrimidin-4-amine], the GI50 was under 50 nM.
